The subject of assay [1] is OT-1 transgenic splenocytes. As to the kind of experiment: In vitro stimulation of OT-1 splenocytes with peptide antigen in the presence of TLR agonists, surface markers by flow cytometry. Format: cell-based, mice. The arrangement: key to 4-1BB / PD-1 / LAG3 / CD160 / CD244.2 / BTLA / VISTA: “+” means increase; “−” means decrease; “=” means no change; “=/+” or “=/−” means the change is there but not significant; “=/+” or “=/−” means the change is there but not significant. Particulars: for 4-1BB / LAG3 / PD-1: OT-1 splenocytes, high affinity antigen plus TLR agonist, versus antigen alone. The protocol: T cell activation was measured by the levels of marker 4-1BB (a/k/a CD137, a member of the TNF receptor superfamily). The level of PD-1 expression was also assessed in these cells (FIG. 1B).
There was no difference in LAG3 expression between the control cells and cells treated with any of the assayed TLR agonists.
OT-1 transgenic splenocytes were treated with high affinity antigen in combination with Pam3CSK4 (TLR1 and 2 agonist), Gardiquimod (TLR7 agonist) or no TLR agonist and the levels of different checkpoint markers or T cell stimulation (measured by 4-1BB, FIG. 5) were assayed. The checkpoint markers BTLA (FIG. 6), VISTA (FIG. 7), CD160 (FIG. 8) and CD244.2 (FIG. 9) were assayed.
TLR stimulation at the time of T-cell activation in vitro affects expression of PD-1. Given that CpG-rich DNA is a TLR9 agonist and Lm is a TLR2 agonist, we questioned whether TLR stimulation with different ligands could similarly affect expression of different T-cell checkpoint inhibitors. […] OT-1 splenocytes were stimulated in vitro with peptides of different affinity for MHC class I (high-affinity SIINFEKL peptide (SEQ ID NO:1, OVA), moderate-affinity SIINTEKL peptide (SEQ ID NO:2, FT), or low-affinity SIINFEKP peptide (SEQ ID NO:7, LP)), alone or in the presence of different TLR ligands (TLR 1/2 (Pam3CSK4), TLR 3 (Poly I:C), TLR 4 (MPLAs), TLR 7 (Gardiquimod), TLR 7/8 (R848), or TLR 9 (ODN1826)). […] Similarly, LAG-3 expression increased by day 3, but was not affected by the presence of different TLR ligands. […] This reduction in PD-1 expression was observed most with the high-affinity SIINFEKL (SEQ ID NO:1) epitope, but also observed following activation with lower affinity epitopes. Given these findings, we evaluated expression of multiple other T-cell checkpoint molecules following T-cell activation in the presence of TLR ligands. […] Cytotoxic T-lymphocyte-associated protein 4 (CTLA-4) expression, however, was increased in the presence of TLR1/2 agonist. Similar results were found activating OT-1 cells with the lower affinity FT (SIINTEKL peptide (SEQ ID NO:2)), LP (SIINFEKP peptide (SEQ ID NO:7), or LY (SIINFEKY, SEQ ID NO:8) epitopes (FIG. 19).
In vitro T-cell stimulation: Spleens were collected from OT-1 mice, processed through a mesh screen, and splenocytes were isolated by centrifugation after red blood cell osmotic lysis with ammonium chloride/[…] lysis buffer (0.15 M NH4Cl, 10 mM KHCO3, 0.1 mM EDTA). Splenocytes were cultured at 2×10^6/mL in RPMI 1640 medium supplemented with L-glutamine, 10% fetal calf serum (FCS), 200 U/mL penicillin/streptomycin, 1% sodium pyruvate, 1% HEPES, 50 μM β-MeOH, and 2 μg/mL of the designated peptide. TLR agonists were all purchased from InvivoGen (San Diego, CA) and added one hour before peptides at the following optimal concentrations based on preliminary studies and previously reported results: 300 ng/ml Pam3CSK4, 10 μg/mL Poly(I:C) HMW, 10 μg/ml MPLAs, 3 μg/ml Gardiquimod, 10 μg/ml R848, 5 μM ODN 1826. At the time points indicated, cells were stained, fixed for 15 min at 4° C. in cytofix (BD Biosciences (BD), San Jose, CA; 554655), and frozen in FCS+10% DMSO. After all time points were collected, cells from all times were thawed, rinsed and resuspended in PBS+3% FCS+1 mM EDTA and analyzed by flow cytometry. Cells were stained for 30 min at 4° C. in a 1:4 dilution of brilliant stain buffer (BD 563794) in PBS+3% FCS+1 mM EDTA. In order to assess co-stimulation, blocking antibodies for CD80 (0.6 μg/mL), CD86 (0.25 μg/mL) or OX40L (0.6 μg/mL) were added 1 hour prior to antigen.
A general note: In flow cytometry, cells or beads pass a laser one at a time.

The next assay relates to OT-1 CD8+ T cells. As to the kind of experiment: Adoptive transfer of OT-1 T cells and immunization of C57BL/6 mice, marker expression on splenic OT-1 T cells. Format: in vivo. The source says:
Vaccine type can affect expression of T-cell checkpoint molecules on activated CD8+ T cells: This Example used an ovalbumin vaccination model. OT-1 cells were adoptively transferred to naïve C57BL/6 mice. The day after transfer, mice were immunized once with (a) DNA encoding ovalbumin, (b) Listeria monocytogenes (Lm) encoding ovalbumin, (c) OVA257-264 peptide (SIINFEKL (SEQ ID NO:1)), (d) SIINFEKL peptide (SEQ ID NO:1) with DNA vector, (e) DNA vector alone, (f) Lm encoding control vector with no antigen, or (g) NS (non-specific) peptide. Splenocytes were collected the day after vaccination for expression of cell surface markers on antigen-specific OT-1 cells. […] LAG-3 expression was not reduced in the presence of Lm co-administered with peptide.
TLR stimulation at the time of T-cell activation reduced expression of PD-1 in vivo: To determine whether TLR stimulation at the time of T-cell activation with vaccination elicited a similar reduction in PD-1 in vivo, OT-1 cells were adoptively transferred to naïve C57BL/6 mice as above, and immunized once with OVA or FT peptide (or non-specific peptide) one day later in the presence or absence of a TLR 1/2, TLR7, or TLR9 ligand. Splenocytes were collected from groups up to 14 days after immunization and evaluated for expression of 4-1BB, PD-1 and LAG-3.
Adoptive transfer and immunization of wild type C57BL/6 (B6) mice: OT-1 splenocytes were harvested and CD8+ T cells were isolated as described above. 2×10^6 OT-1 T cells were adoptively transferred into 6- to 10-week old female B6 mice via intraperitoneal injection. The day following transfer, mice were immunized subcutaneously with 100 μg SIINFEKL peptide (SEQ ID NO:1) in PBS without adjuvant, intradermally with 100 μg plasmid encoding full length secreted chicken egg ovalbumin (pCI-neo-sOVA (psOVA), Addgene plasmid #25098, Cambridge, MA), intraperitoneally with 5×10^6 cfu of a Listeria monocytogenes vector encoding ovalbumin (Lm-OVA, gift of JD Sauer), or vehicle or corresponding wild-type Lm or DNA plasmid vector. TLR agonists were co-injected with the vaccine at the following concentrations: 20 μg/mouse Pam3CSK4, 100 μg/mouse Gardiquimod, 50 μg/mouse ODN 1826, or vehicle. Mice were euthanized at the times indicated. Spleens were collected, processed as described above, and T-cell populations analyzed by flow cytometry. Data collected on different days were normalized using rainbow beads (Spherotech, Lake Forest, IL; RFP-30-5A).

The test system of assay [2] is ovalbumin-expressing E.G7 cells. Kind of assay: Ovalbumin tumor treatment study: peptide immunization with or without TLR agonist. Format: in vivo, mice. Particulars: FT peptide relative to high-affinity OVA peptide. The protocol: OT-1 T cells were then adoptively transferred and the following day were immunized with SIINFEKL (SEQ ID NO:1, OVA) or FT peptide (SEQ ID NO:2) alone or with TLR1/2 or TLR7 agonist. Other groups were immunized with 100 μg anti-PD-1 antibody delivered the following day. […] This anti-tumor effect was not observed with TLR agonist treatment alone (FIG. 22). […] This was associated with a reduced PD-1 (but not LAG-3) expression on CD8+ TIL (FIG. 17C).
Ovalbumin tumor treatment studies: 10^6 ovalbumin-expressing E.G7 PD-L 1^high cells were injected subcutaneously into 6- to 10-week old female B6 mice. Ten to fifteen days post injection, when tumors were palpable and similarly sized (˜0.2 cm^3), 2×10^6 naïve OT-1 CD8+ T cells were adoptively transferred to each mouse as described above. The following day mice were immunized subcutaneously with 100 μg of an individual peptide (SIINFEKL (SEQ ID NO:1) or variant, LifeTein) in PBS, with or without TLR agonists as described above. In the group receiving PD-1 blocking antibody, 100 μg of antibody (clone G4 (52)) was injected intraperitoneally on the day following vaccination. Tumor volume was measured over time using calipers and calculated in cubic centimeters according to the following formula: (π/6)*(long axis)*(short axis)^2. Tumors obtained at necropsy were digested in media containing 1 mg/mL collagenase and 20 μg/mL DNAse I (Sigma, St. Louis, MO) for 1-2 hours at 37° C. and passed through a 100-μm screen to obtain a single-cell suspension. Tumor cells and tumor-infiltrating lymphocytes (TILs) were stained and analyzed by flow cytometry using the following panel: CD3-FITC (BD 555274), CD4-BUV395 (BD 563790), CD8-BUV805 (BD 564920), LAG-3-BV711 (BD 563179), PD1-PECF594 (BD 562523), PDL1-PECy7 (BD 558017), 41BB-PerCPeF710) (eBioscience 46-1371-82), CD45-BV510 (BD 563891) and Live/Dead Ghost dye 780 (Tonbo, San Diego, CA 13-0865-T100) or corresponding fluorescently labeled IgG controls.

As to `CCOCc1nc2c(N)nc3ccccc3c2n1CC(C)(C)O` [R848, Resiquimod], in assay [1], the 4-1BB result is “=”, the LAG3 entry is “=” and the PD-1 entry was “−”.
With ODN1826, in assay [1], the 4-1BB result was “=”, the LAG3 result is given as “=/−” and the PD-1 entry is recorded as “−”. In assay [1] (in words, SIINFEKL plus TLR agonist versus antigen alone, up to 4 days), the “PD-1 expression on activated T cells” value was “significantly reduced”. In addition, the “PD-1 expression on OT-1 CD8+ T cells in vivo” value in the assay on OT-1 CD8+ T cells (OVA or FT peptide immunization with TLR ligand versus peptide alone, splenocytes up to 14 days, early after T-cell activation) was “significantly reduced”.
As to SIINFEKL [SIINFEKL peptide], the “T-cell activation as measured by 4-1BB expression, by peptide affinity” value in assay [1] (OVA versus FT and LP peptides) is recorded as “greatest T-cell activation”. Further, the “LAG-3 expression by vaccine type” value in the assay on OT-1 CD8+ T cells (one immunization, splenocytes after vaccination, Lm co-administered with peptide) was “significantly increased”. Further, the “4-1BB expression by vaccine type” value with OT-1 CD8+ T cells (one immunization, splenocytes after vaccination, Lm or DNA co-administered at the site of peptide immunization) is on record as “strongest activation”. For the same compound, the “PD-1 expression by vaccine type” value in the assay with OT-1 CD8+ T cells (one immunization, splenocytes after vaccination, Lm or DNA co-administered with peptide versus peptide) is “significantly increased”.
Regarding SIINTEKL [FT peptide], the “anti-tumor response of peptide immunization alone” value in assay [2] is “greater anti-tumor response”.

The values are drawn from US20240390487A1, “TLR AGONISTS FOR REDUCING ACTIVATION-INDUCED PD-1 EXPRESSION ON T CELLS AND METHODS OF USE” (WISCONSIN ALUMNI RESEARCH FOUNDATION, priority 2016, published 2024).
